Measured values as given in patent publication US10246711B2, “RNAi inhibitors of glucose-6-phosphate dehydrogenase for treating cardiovascular and pulmonary conditions” (priority 2016, dated 2019).

Tests used:
Assay type in all cases: cell-based
G6PD protein = assay: Western blot of G6PD protein in hypoxic rat pulmonary artery smooth muscle cells; conditions: rat PASMC; 50 ng and 100 ng; hypoxia (1% O2) 72 hr; compared to untransfected (UT), non-targeting (NT) and G6PD-siRNA#1; FIG. 4A
Experimental: (§1) FIGS. 4A-4B are blots showing rat pulmonary artery smooth muscle cells that were cultured in 15% DMEM for 48 hr and transfected with G6PD-siRNA#1 and G6PD-siRNA#2, respectively (0.5 and 1.0 μl=50 ng and 100 ng, respectively). The cells were then subjected to hypoxia (1% 02) for 72 hr. Expression of G6PD protein was estimated using western blot analyses. UT=Untransfected; NT=non-targeting/scrambled sequence (FIG. 4A). Beta-Actin (ACTB) was used as loading control. FIG. 4B are blots showing the effect of G6PD-siRNA#2 treatment, on the expression of G6PD (FIG. 4B-panel 2), polymerase delta (FIG. 4B-panel 3), cyclin E1 (FIG. 4B-panel 4), and cyclin B (FIG. 4B-panel 5), under normoxic and hypoxic conditions, in these cells were determined using Western blot analyses. GAPDH was used as a loading control.
(§2) In FIGS. 4A-B, rat pulmonary artery smooth muscle cells were cultured in 15% DMEM for 48 hr. Cells were then transfected with G6PD-siRNA#1 and G6PD-siRNA#2, respectively (0.5 and 1.0 μl=50 ng and 100 ng, respectively) and subjected to hypoxia (1% 02) for 72 hr. […] GAPDH was used as a loading control.

[1] = test system: polymerase delta, cyclin E1, cyclin B1; assay: Western blot of replication and cell cycle proteins in rat pulmonary artery smooth muscle cells; conditions: rat PASMC, normoxic and hypoxic conditions
Experimental: as §1, §2

G6PD = G6PD knockdown by G6PD-specific siRNA sequence (preliminary results); conditions: based on preliminary results
Experimental: PASM cells cultured in a 12-well plate were transfected for 72 h with 100 nmol/1 shRNA targeting G6PD using lipid-based and nano-particle based transfection system. Control experiments were performed using a nontargeting/scrambled (NT) shRNA (negative control).

Substance	G6PD protein expression (G6PD protein)	expression of polymerase delta ([1]; FIG. 4B-panel 3)	expression of cyclin E1 ([1]; FIG. 4B-panel 4)	expression of cyclin B1 ([1]; FIG. 4B-panel 5)	downregulation of G6PD (G6PD)
G6PD-siRNA#2: Sense (SEQ ID NO. 6) 5′ CGACGAAGCGCAGACAGCGUC 3′; Antisense (SEQ ID NO. 7) 5′GACGCUGUCUGCGCUUCGUCG3′ (listed as RNA, chemistry not given here)	significantly down-regulated	significantly down-regulated	significantly down-regulated	significantly down-regulated	
SEQ ID NO: 2: G6PD-specific siRNA gene sequence CAACAUCGCCUGCGUUAUC; nucleotide positions 922-940 of SEQ ID NO. 1 (expressed or natural sequence)					specifically and efficaciously downregulated G6PD
